In patent publication US6720346B2, “Thiazole benzamide derivatives and pharmaceutical compositions for inhibiting cell proliferation” (Agouron Pharmaceuticals, Inc., priority 2001, dated 2004):

Legend:
HCT-116 cell line = experiment: Inhibition of cell growth, MTT tetrazolium salt assay; format: cell-based; conditions: HCT-116, at 0.25 μM
Outline: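 HCT-116 cells in McCoy's 5A were dosed 4 h after plating with compounds in 0.5% DMSO and grown 3–5 days at 37 °C. Then 0.2 mg/mL MTT was added for 4 h and formazan absorbance read at 540 nm. IC50/IC90 came from semi-log plots against DMSO-only controls.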

CDK2/cyclin A = molecular target: T1, CDK2/cyclin A (Homo sapiens, UniProt P24941); experiment: Inhibition of CDK2/cyclin A retinoblastoma kinase activity (Ki; % inhibition); format: biochemical; conditions: at 0.03 μM
T1 construct: made in house; host or cells: CDK2: insect cells (baculovirus); cyclin A: E. coli
Outline: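 Radiometric filter assay of CDK2/proteolyzed cyclin A (baculovirus-expressed human CDK2, 10 or 19 nM) phosphorylating an Rb fragment with 25 μM [³²P/³³P]ATP in pH 7.4 HEPES, 2% DMSO, at 30 °C for 60 or 75 min under initial-rate conditions. Library compounds screened at 30 nM for % inhibition; apparent Ki from concentration series fit to competitive or tight-binding inhibition equations.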

human CDK4/cyclin D3 = molecular target: T2, human CDK4/cyclin D3 (Homo sapiens, UniProt P11802); experiment: Inhibition of CDK4/cyclin D retinoblastoma kinase activity (Ki; % inhibition); format: biochemical; conditions: at 0.03 μM
T2 construct: made in house; host or cells: insect cells co-infected with baculovirus vectors
Outline: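 Insect-cell-expressed CDK4 with truncated cyclin D3 (1-264), 5 nM, phosphorylating His-tagged Rb fragment (386-928) with 25 μM [32/33P]ATP at pH 7.4, 30 °C, 20 min (60 min for tight binders). Filter capture, phosphorimager read; % inhibition at 30 nM compound, Ki from competitive or tight-binding fits.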

T2 sequence (P11802 whole entry): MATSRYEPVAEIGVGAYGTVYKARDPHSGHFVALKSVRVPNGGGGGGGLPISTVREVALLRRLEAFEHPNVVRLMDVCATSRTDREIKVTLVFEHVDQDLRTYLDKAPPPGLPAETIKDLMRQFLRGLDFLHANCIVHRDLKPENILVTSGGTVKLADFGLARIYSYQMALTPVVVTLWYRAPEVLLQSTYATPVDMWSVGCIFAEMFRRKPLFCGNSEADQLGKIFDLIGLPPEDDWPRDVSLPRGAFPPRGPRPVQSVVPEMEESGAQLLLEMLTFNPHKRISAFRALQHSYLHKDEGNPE
T2 sequence (P30281 1-264 partner limits assumed): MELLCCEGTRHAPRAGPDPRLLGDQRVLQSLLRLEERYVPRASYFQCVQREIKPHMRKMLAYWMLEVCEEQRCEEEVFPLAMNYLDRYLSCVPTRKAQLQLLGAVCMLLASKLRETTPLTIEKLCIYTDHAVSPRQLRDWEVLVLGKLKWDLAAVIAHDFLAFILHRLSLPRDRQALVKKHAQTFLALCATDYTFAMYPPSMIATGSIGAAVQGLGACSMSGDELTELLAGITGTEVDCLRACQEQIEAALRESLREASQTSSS

SMILES	HCT-116 % Inhibition at 0.25 μM (HCT-116 cell line) [%]	CDK2 % Inhibition at 0.03 μM (CDK2/cyclin A) [%]	CDK4 % Inhibition at 0.03 μM (human CDK4/cyclin D3) [%]	HCT-116 % Inhibition at 0.25 μM (HCT-116 cell line; 0.25 µM) [%]
CN(Cc1cccnc1)C(=O)c1ccc(Nc2nc(N)c(C(=O)c3c(F)cccc3F)s2)cc1 [Example G20]	50	10	9	–
C=CCN1CCN(C(=O)c2ccc(Nc3nc(N)c(C(=O)c4c(F)cccc4F)s3)cc2)CC1 [Example G21]	46	3	14	–
COc1ccc(C(F)(F)F)cc1NC(=O)c1ccc(Nc2nc(N)c(C(=O)c3c(F)cccc3F)s2)cc1 [Example G22]	50	2	−3	–
COc1ccccc1NC(=O)c1ccc(Nc2nc(N)c(C(=O)c3c(F)cccc3F)s2)cc1 [Example G23]	63	8	7	–
CCOC(=O)c1cccc(NC(=O)c2ccc(Nc3nc(N)c(C(=O)c4c(F)cccc4F)s3)cc2)c1 [Example G24]	58	7	11	–
CCN(CCO)C(=O)c1ccc(Nc2nc(N)c(C(=O)c3c(F)cccc3F)s2)cc1 [Example G25]	52	−16	10	–
Nc1nc(Nc2ccc(C(=O)N3CCSCC3)cc2)sc1C(=O)c1c(F)cccc1F [Example G26]	53	3	13	–
C=CCN(C)C(=O)c1ccc(Nc2nc(N)c(C(=O)c3c(F)cccc3F)s2)cc1 [Example G27]	60	−6	4	–
CCN(Cc1ccncc1)C(=O)c1ccc(Nc2nc(N)c(C(=O)c3c(F)cccc3F)s2)cc1 [Example G28]	66	1	19	–
CN(C)C1CCN(C(=O)c2ccc(Nc3nc(N)c(C(=O)c4c(F)cccc4F)s3)cc2)C1 (stereo not drawn) [Example G29]	–	4	32	55
Nc1nc(Nc2ccc(C(=O)Nc3ccc(-c4csnn4)cc3)cc2)sc1C(=O)c1c(F)cccc1F [Example G30]	82	5	5	–
CSc1ccccc1NC(=O)c1ccc(Nc2nc(N)c(C(=O)c3c(F)cccc3F)s2)cc1 [Example G31]	75	4	4	–
Nc1nc(Nc2ccc(C(=O)N3CCN(C(=O)c4ccco4)CC3)cc2)sc1C(=O)c1c(F)cccc1F [Example G32]	55	8	27	–
Nc1nc(Nc2ccc(C(=O)N3CCSC3)cc2)sc1C(=O)c1c(F)cccc1F [Example G33]	54	−3	10	–
Nc1nc(Nc2ccc(C(=O)N3CCC4(CC3)OCCO4)cc2)sc1C(=O)c1c(F)cccc1F [Example G34]	53	8	9	–
CCN(CC)CCN(CC)C(=O)c1ccc(Nc2nc(N)c(C(=O)c3c(F)cccc3F)s2)cc1 [Example G35]	53	5	8	–
COCCN(CCOC)C(=O)c1ccc(Nc2nc(N)c(C(=O)c3c(F)cccc3F)s2)cc1 [Example G36]	62	−4	6	–
CN(C)C1CCN(C(=O)c2ccc(Nc3nc(N)c(C(=O)c4c(F)cccc4F)s3)cc2)C1 (stereo not drawn) [Example G37]	–	11	25	65
Cc1cc(NC(=O)c2ccc(Nc3nc(N)c(C(=O)c4c(F)cccc4F)s3)cc2)ccc1Cl [Example G38]	65	3	7	–
COC(=O)c1ccccc1NC(=O)c1ccc(Nc2nc(N)c(C(=O)c3c(F)cccc3F)s2)cc1 [Example G39]	65	−4	−1	–
Nc1nc(Nc2ccc(C(=O)N3CC=CC3)cc2)sc1C(=O)c1c(F)cccc1F [Example G40]	61	4	18	–
